Experiments:
GALAP (Galium) = assay: Postemergence herbicidal evaluation; type: in vivo, Galium aparine; details: postemergence
In short: (§1)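 Visual 0–9 rating versus control (stand, vigor, malformation, size, chlorosis, overall appearance), taken four to five weeks post-spray. Two-week-old seedlings received roughly 0.0156–0.500 kg/ha active in acetone/water (50/50) with 0.5% TWEEN 20 via nozzle at 40 psi.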

CASOB (Sicklepod) [1] = assay: Preemergence herbicidal evaluation; type: in vivo, Cassia obtusifolia; details: rated 4-5 weeks after treatment
In short: (§2)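 Seeds were mixed with potting soil and planted on about one inch of soil, then sprayed with test compound in aqueous acetone at about 0.0156 to 0.500 kg per hectare. Plants grew under standard greenhouse care and were visually rated 0-9 against untreated controls 4-5 weeks post-treatment.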

ZEAMX (Corn, Field) = assay: Preemergence herbicidal evaluation; type: in vivo, Zea mays; details: rated 4-5 weeks after treatment
In short: as §2

AMBEL (Ragweed, Common) = assay: Postemergence herbicidal evaluation; type: in vivo, Ambrosia artemisifolia; details: postemergence
In short: as §1

ABUTH (Velvetleaf) = assay: Preemergence herbicidal evaluation; type: in vivo, Abutilon theophrasti; details: rated 4-5 weeks after treatment
In short: as §2

[2] = tested on: TRZAWR (Wheat, Winter, cv Riband); assay: Preemergence herbicidal evaluation; type: in vivo, Triticum aestivum; details: rated 4-5 weeks after treatment
In short: as §2

CASOB (Sicklepod) [3] = assay: Postemergence herbicidal evaluation; type: in vivo, Cassia obtusifolia; details: postemergence
In short: as §1

MOOVA (Monochoria) = assay: Preemergence weed control under flooded paddy conditions; type: in vivo, Monochoria vaginalis; details: rated 3-4 weeks after treatment
In short: (§3)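 Ratings on a 0-9 visual scale cover stand, vigor, malformation, size, chlorosis and overall appearance relative to a control, taken three to four weeks post-treatment. Application was into flood water over freshly sown silt loam at roughly 0.0313 to 0.500 kg/ha.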

[4] = tested on: IPOHE (Morningglory, Ivyleaf); assay: Postemergence herbicidal evaluation; type: in vivo, Ipomoea hederacea; details: postemergence
In short: as §1

[5] = tested on: IPOHE (Morningglory, Ivyleaf); assay: Preemergence herbicidal evaluation; type: in vivo, Ipomoea hederacea; details: rated 4-5 weeks after treatment
In short: as §2

[6] = tested on: SAGPY (Arrowhead (Pygmaea)); assay: Preemergence weed control under flooded paddy conditions; type: in vivo, Sagittaria pygmaea; details: rated 3-4 weeks after treatment
In short: as §3

ECHCG (Barnyardgrass) = assay: Preemergence herbicidal evaluation; type: in vivo, Echinochloa crus-galli; details: rated 4-5 weeks after treatment
In short: as §2

[7] = tested on: GLXMAW (Soybean, Williams); assay: Preemergence herbicidal evaluation; type: in vivo, Glycine max, (L.) Merr. cv Williams; details: rated 4-5 weeks after treatment
In short: as §2

[8] = rate 0.0313 kg/ha, rating scale 0-9
[9] = rate 0.0625 kg/ha, rating scale 0-9
[10] = rate 0.1250 kg/ha, rating scale 0-9
[11] = rate 0.2500 kg/ha, rating scale 0-9

Cn1c(C(F)(F)F)cc(=O)n(-c2cc(N=C3SCC(=O)N3Cc3ccncc3)c(Cl)cc2F)c1=O [Compound 133, 3-{4-Chloro-2-fluoro-5-{[4-oxo-3-(4-pyridylmethyl)-2-thiazolidinylidene]amino}phenyl}-1-methyl-6-(trifluoromethyl)-2,4(1H,3H)-pyrimidinedione]
5.0: Preemergence herbicidal rating ABUTH (ABUTH (Velvetleaf); [11])
4.0: herbicidal effect rating, MOOVA (MOOVA (Monochoria); 0.0625 kg/ha) | herbicidal effect rating, MOOVA (MOOVA (Monochoria); 0.1250 kg/ha)
1.0: Preemergence herbicidal rating ABUTH (ABUTH (Velvetleaf); [10]) | Herbicidal rating CASOB (CASOB (Sicklepod) [3]; rate 0.0313 kg/ha) | Preemergence herbicidal rating IPOHE [5, 11]
2.0: Herbicidal rating GALAP (GALAP (Galium); rate 0.0313 kg/ha)
6.0: Herbicidal rating AMBEL (AMBEL (Ragweed, Common); rate 0.0313 kg/ha) | herbicidal effect rating, MOOVA (MOOVA (Monochoria); 0.2500 kg/ha)
9.0: Preemergence herbicidal rating CASOB (CASOB (Sicklepod) [1]; [11]) | Herbicidal rating AMBEL (AMBEL (Ragweed, Common); rate 0.0156 kg/ha) | Herbicidal rating AMBEL (AMBEL (Ragweed, Common); rate 0.0625 kg/ha) | Herbicidal rating IPOHE ([4]; rate 0.0156 kg/ha) | Herbicidal rating IPOHE ([4]; rate 0.0313 kg/ha) | Herbicidal rating IPOHE ([4]; rate 0.0625 kg/ha)
0.0: Herbicidal rating GALAP (GALAP (Galium); rate 0.0156 kg/ha) | Preemergence herbicidal rating CASOB (CASOB (Sicklepod) [1]; [8]) | Preemergence herbicidal rating CASOB (CASOB (Sicklepod) [1]; [9]) | Preemergence herbicidal rating CASOB (CASOB (Sicklepod) [1]; [10]) | Preemergence herbicidal rating ZEAMX (ZEAMX (Corn, Field); [8]) | Preemergence herbicidal rating ZEAMX (ZEAMX (Corn, Field); [9]) | Preemergence herbicidal rating ZEAMX (ZEAMX (Corn, Field); [10]) | Preemergence herbicidal rating ZEAMX (ZEAMX (Corn, Field); [11]) | Preemergence herbicidal rating ABUTH (ABUTH (Velvetleaf); [8]) | Preemergence herbicidal rating ABUTH (ABUTH (Velvetleaf); [9]) | Preemergence herbicidal rating TRZAWR [2, 8] | Preemergence herbicidal rating TRZAWR [2, 9] | Preemergence herbicidal rating TRZAWR [2, 10] | Preemergence herbicidal rating TRZAWR [2, 11] | Herbicidal rating CASOB (CASOB (Sicklepod) [3]; rate 0.0156 kg/ha) | Preemergence herbicidal rating IPOHE [5, 8] | Preemergence herbicidal rating IPOHE [5, 9] | Preemergence herbicidal rating IPOHE [5, 10] | herbicidal effect rating, SAGPY ([6]; 0.0313 kg/ha) | Preemergence herbicidal rating ECHCG (ECHCG (Barnyardgrass); [8]) | Preemergence herbicidal rating ECHCG (ECHCG (Barnyardgrass); [9]) | Preemergence herbicidal rating ECHCG (ECHCG (Barnyardgrass); [10]) | Preemergence herbicidal rating ECHCG (ECHCG (Barnyardgrass); [11]) | Preemergence herbicidal rating GLXMAW [7, 8] | Preemergence herbicidal rating GLXMAW [7, 9] | Preemergence herbicidal rating GLXMAW [7, 10] | Preemergence herbicidal rating GLXMAW [7, 11]
3.0: Herbicidal rating GALAP (GALAP (Galium); rate 0.0625 kg/ha) | Herbicidal rating CASOB (CASOB (Sicklepod) [3]; rate 0.0625 kg/ha) | herbicidal effect rating, MOOVA (MOOVA (Monochoria); 0.0313 kg/ha) | herbicidal effect rating, SAGPY ([6]; 0.0625 kg/ha) | herbicidal effect rating, SAGPY ([6]; 0.1250 kg/ha) | herbicidal effect rating, SAGPY ([6]; 0.2500 kg/ha)

Cn1c(C(F)(F)F)cc(=O)n(-c2cc(N=C3SCC(=O)N3C3CCC3)c(Cl)cc2F)c1=O [Compound 168, 3-{4-Chloro-5-[(3-cyclobutyl-4-oxo-2-thiazolidinylidene)amino]-2-fluorophenyl}-1-methyl-6-(trifluoromethyl)-2,4(1H,3H)-pyrimidinedione]
7.0: herbicidal effect rating, MOOVA (MOOVA (Monochoria); 0.2500 kg/ha)
1.0: Herbicidal rating GALAP (GALAP (Galium); rate 0.0313 kg/ha)
6.0: herbicidal effect rating, MOOVA (MOOVA (Monochoria); 0.0313 kg/ha) | herbicidal effect rating, MOOVA (MOOVA (Monochoria); 0.0625 kg/ha) | herbicidal effect rating, MOOVA (MOOVA (Monochoria); 0.1250 kg/ha)
2.0: Herbicidal rating CASOB (CASOB (Sicklepod) [3]; rate 0.0625 kg/ha) | herbicidal effect rating, SAGPY ([6]; 0.2500 kg/ha)
0.0: Herbicidal rating GALAP (GALAP (Galium); rate 0.0156 kg/ha) | Preemergence herbicidal rating CASOB (CASOB (Sicklepod) [1]; 0.0156 kg/ha) | Preemergence herbicidal rating CASOB (CASOB (Sicklepod) [1]; 0.0313 kg/ha) | Preemergence herbicidal rating CASOB (CASOB (Sicklepod) [1]; 0.0625 kg/ha) | Preemergence herbicidal rating CASOB (CASOB (Sicklepod) [1]; 0.1250 kg/ha) | Preemergence herbicidal rating CASOB (CASOB (Sicklepod) [1]; 0.2500 kg/ha) | Preemergence herbicidal rating ZEAMX (ZEAMX (Corn, Field); 0.0156 kg/ha) | Preemergence herbicidal rating ZEAMX (ZEAMX (Corn, Field); 0.0313 kg/ha) | Preemergence herbicidal rating ZEAMX (ZEAMX (Corn, Field); 0.0625 kg/ha) | Preemergence herbicidal rating ZEAMX (ZEAMX (Corn, Field); 0.1250 kg/ha) | Preemergence herbicidal rating ZEAMX (ZEAMX (Corn, Field); 0.2500 kg/ha) | Preemergence herbicidal rating ABUTH (ABUTH (Velvetleaf); 0.0156 kg/ha) | Preemergence herbicidal rating ABUTH (ABUTH (Velvetleaf); 0.0313 kg/ha) | Preemergence herbicidal rating TRZAWR ([2]; 0.0156 kg/ha) | Preemergence herbicidal rating TRZAWR ([2]; 0.0313 kg/ha) | Preemergence herbicidal rating TRZAWR ([2]; 0.0625 kg/ha) | Preemergence herbicidal rating TRZAWR ([2]; 0.1250 kg/ha) | Preemergence herbicidal rating TRZAWR ([2]; 0.2500 kg/ha) | Herbicidal rating CASOB (CASOB (Sicklepod) [3]; rate 0.0156 kg/ha) | Herbicidal rating CASOB (CASOB (Sicklepod) [3]; rate 0.0313 kg/ha) | Preemergence herbicidal rating IPOHE ([5]; 0.0156 kg/ha) | Preemergence herbicidal rating IPOHE ([5]; 0.0313 kg/ha) | Preemergence herbicidal rating IPOHE ([5]; 0.0625 kg/ha) | herbicidal effect rating, SAGPY ([6]; 0.0313 kg/ha) | herbicidal effect rating, SAGPY ([6]; 0.0625 kg/ha) | herbicidal effect rating, SAGPY ([6]; 0.1250 kg/ha) | Preemergence herbicidal rating ECHCG (ECHCG (Barnyardgrass); 0.0156 kg/ha) | Preemergence herbicidal rating ECHCG (ECHCG (Barnyardgrass); 0.0313 kg/ha) | Preemergence herbicidal rating ECHCG (ECHCG (Barnyardgrass); 0.0625 kg/ha) | Preemergence herbicidal rating ECHCG (ECHCG (Barnyardgrass); 0.1250 kg/ha) | Preemergence herbicidal rating ECHCG (ECHCG (Barnyardgrass); 0.2500 kg/ha) | Preemergence herbicidal rating GLXMAW ([7]; 0.0156 kg/ha) | Preemergence herbicidal rating GLXMAW ([7]; 0.0313 kg/ha) | Preemergence herbicidal rating GLXMAW ([7]; 0.0625 kg/ha) | Preemergence herbicidal rating GLXMAW ([7]; 0.1250 kg/ha) | Preemergence herbicidal rating GLXMAW ([7]; 0.2500 kg/ha)
4.0: Preemergence herbicidal rating ABUTH (ABUTH (Velvetleaf); 0.0625 kg/ha) | Preemergence herbicidal rating IPOHE ([5]; 0.2500 kg/ha)
5.0: Herbicidal rating IPOHE ([4]; rate 0.0156 kg/ha)
9.0: Herbicidal rating AMBEL (AMBEL (Ragweed, Common); rate 0.0313 kg/ha) | Herbicidal rating AMBEL (AMBEL (Ragweed, Common); rate 0.0625 kg/ha) | Preemergence herbicidal rating ABUTH (ABUTH (Velvetleaf); 0.1250 kg/ha) | Preemergence herbicidal rating ABUTH (ABUTH (Velvetleaf); 0.2500 kg/ha) | Herbicidal rating IPOHE ([4]; rate 0.0313 kg/ha) | Herbicidal rating IPOHE ([4]; rate 0.0625 kg/ha)
3.0: Herbicidal rating GALAP (GALAP (Galium); rate 0.0625 kg/ha) | Herbicidal rating AMBEL (AMBEL (Ragweed, Common); rate 0.0156 kg/ha) | Preemergence herbicidal rating IPOHE ([5]; 0.1250 kg/ha)

Reference: patent US20020137929A1, “1 - (3-heterocyclylphenyl) isothiourea, -isourea, -guanidine and -amidine herbicidal agents” (Intellectual Property Department, BASF Aktiengesellschaft, priority 1998, published 2002)
